The record followed here is PubChem BioAssay AID1259407 (Chemical Carcinogenesis Research Information System (CCRIS), 2018).

The test system of this data set is CCRIS mutagenicity, Ames/micronucleus/aberration tests. As to the kind of experiment: CCRIS mutagenicity studies.
Setting [1] is: Test System: AMES SALMONELLA TYPHIMURIUM, Strain/Indicator: TA100, Metabolic Activation: NONE, Method: STANDARD PLATE.
Setting [2] is: Test System: AMES SALMONELLA TYPHIMURIUM, Strain/Indicator: TA100, Metabolic Activation: RAT, LIVER, S-9, AROCLOR 1254, Method: STANDARD PLATE.
The mark [3] stands for this setting: Test System: AMES SALMONELLA TYPHIMURIUM, Strain/Indicator: TA98, Metabolic Activation: NONE, Method: STANDARD PLATE.

Activity calls are given as the source filed them. How the calls were made is not given here.

On to `Nc1ccc(Cl)cc1N`, for which the mutagenic call was “active; positive (structural changes)” (End Point: IN VITRO CHROMOSOMAL ABERRATIONS, Test System: CHL CELLS, Metabolic Activation: NONE); “active; positive (structural changes)” (End Point: IN VITRO CHROMOSOMAL ABERRATIONS, Test System: CHL CELLS, Metabolic Activation: RAT, LIVER, S-9, SODIUM PHENOBARBITAL AND 5,6-BENZOFLAVONE); “active; positive” (End Point: IN VITRO CHROMOSOMAL ABERRATIONS, Test System: CHO-LB CELLS, Metabolic Activation: NONE); “inactive; negative” (End Point: IN VITRO CHROMOSOMAL ABERRATIONS, Test System: CHO-LB CELLS, Metabolic Activation: RAT, LIVER, S-9, AROCLOR 1254); “inactive; negative” (End Point: IN VIVO MICRONUCLEUS, Test System: HEPATOCYTES, Species: RAT, Strain/Sex: FISHER 344 OR SD/MALE, Route: ORAL OR IP); “inactive; negative” (End Point: IN VIVO MICRONUCLEUS, Test System: PERIPHERAL BLOOD RETICULOCYTES, Species: RAT, Strain/Sex: FISHER 344 OR SD/MALE, Route: ORAL OR IP). Further, the mutagenic call by setting is: (Test System: AMES SALMONELLA TYPHIMURIUM, Strain/Indicator: TA97, Metabolic Activation: HAMSTER, LIVER, S-9, AROCLOR 1254 (10%), Method: PREINCUBATION) “active; positive”; (Test System: AMES SALMONELLA TYPHIMURIUM, Strain/Indicator: TA97, Metabolic Activation: NONE, Method: PREINCUBATION) “inactive; negative”; (Test System: AMES SALMONELLA TYPHIMURIUM, Strain/Indicator: TA97, Metabolic Activation: RAT, LIVER, S-9, AROCLOR 1254 (10%), Method: PREINCUBATION) “active; positive”; (Test System: AMES SALMONELLA TYPHIMURIUM, Strain/Indicator: TA98, Metabolic Activation: HAMSTER, LIVER, S-9, AROCLOR 1254 (10%), Method: PREINCUBATION) “active; positive”; (Test System: AMES SALMONELLA TYPHIMURIUM, Strain/Indicator: TA98, Metabolic Activation: NONE, Method: PREINCUBATION) “inactive; negative”; (Test System: AMES SALMONELLA TYPHIMURIUM, Strain/Indicator: TA98, Metabolic Activation: RAT, LIVER, S-9, AROCLOR 1254 (10%), Method: PREINCUBATION) “active; positive”. In addition, the mutagenic call is, setting by setting: (Test System: AMES SALMONELLA TYPHIMURIUM, Strain/Indicator: TA98, Metabolic Activation: RAT, LIVER, S-9, PCB, Method: PREINCUBATION) “active; positive”; (Test System: AMES SALMONELLA TYPHIMURIUM, Strain/Indicator: TA100, Metabolic Activation: HAMSTER, LIVER, S-9, AROCLOR 1254 (10%), Method: PREINCUBATION) “active; positive”; (Test System: AMES SALMONELLA TYPHIMURIUM, Strain/Indicator: TA100, Metabolic Activation: NONE, Method: PREINCUBATION) “inactive; negative”; (Test System: AMES SALMONELLA TYPHIMURIUM, Strain/Indicator: TA100, Metabolic Activation: RAT, LIVER, S-9, AROCLOR 1254 (10%), Method: PREINCUBATION) “active; positive”; (Test System: AMES SALMONELLA TYPHIMURIUM, Strain/Indicator: TA100, Metabolic Activation: RAT, LIVER, S-9, PCB, Method: PREINCUBATION) “active; positive”; (Test System: AMES SALMONELLA TYPHIMURIUM, Strain/Indicator: TA1535, Metabolic Activation: HAMSTER, LIVER, S-9, AROCLOR 1254 (10%), Method: PREINCUBATION) “inactive; negative”. Moreover, the mutagenic call was “inactive; negative” (Test System: AMES SALMONELLA TYPHIMURIUM, Strain/Indicator: TA1535, Metabolic Activation: NONE, Method: PREINCUBATION); “inactive; negative” (Test System: AMES SALMONELLA TYPHIMURIUM, Strain/Indicator: TA1535, Metabolic Activation: RAT, LIVER, S-9, AROCLOR 1254 (10%), Method: PREINCUBATION); “inactive; negative” (Test System: E. COLI, Strain/Indicator: WP2 UVRA, Metabolic Activation: HAMSTER, LIVER, S-9, AROCLOR 1254, Method: STANDARD PLATE); “inactive; negative” (Test System: E. COLI, Strain/Indicator: WP2 UVRA, Metabolic Activation: MOUSE, LIVER, S-9, AROCLOR 1254, Method: STANDARD PLATE); “inactive; negative” (Test System: E. COLI, Strain/Indicator: WP2 UVRA, Metabolic Activation: MOUSE, LIVER, S-9, Method: STANDARD PLATE); “inactive; negative” (Test System: E. COLI, Strain/Indicator: WP2 UVRA, Metabolic Activation: NONE, Method: STANDARD PLATE). For the same compound, the mutagenic call is, setting by setting: (Test System: E. COLI, Strain/Indicator: WP2 UVRA, Metabolic Activation: RAT, LIVER, S-9, Method: STANDARD PLATE) “inactive; negative”; (Test System: UDS RODENT HEPATOCYTES, Strain/Indicator: THY INCORP (NON-S-PHASE), Metabolic Activation: NONE, Method: AUTORADIOGRAPHY) “active; positive”.

With `COc1nsc2cc(OCC3CO3)ccc12` (stereo unspecified), under setting [1], the mutagenic call was “active; positive”.

Turning to `CC(Br)C(=O)Nc1ccccc1` (stereo unspecified), the mutagenic call runs as follows: (Test System: AMES SALMONELLA TYPHIMURIUM, Strain/Indicator: TA100, Metabolic Activation: MOUSE, LIVER, S-9, AROCLOR 1254, Method: STANDARD PLATE) “active; positive”; under setting [1], “inactive; negative”.

Take `c1ccc2c(c1)ccc1ccc3c(c12)CCC3`: the mutagenic call under setting [2] was “active; positive”.

Turning to `c1ccc2c(c1)-c1cc3c(cc1C1NC21)-c1ccccc1C1NC31` (stereo unspecified), the mutagenic call under setting [1] is “active; positive”.

Take `OCc1ccc(Cl)cc1`: the mutagenic call under setting [1] was “inactive; negative”.

With `ONc1ccc(Cl)c(Cl)c1`, the mutagenic call was “inactive; negative” (Test System: AMES SALMONELLA TYPHIMURIUM, Strain/Indicator: TA97, Metabolic Activation: NONE, Method: STANDARD PLATE); “inactive; negative” under setting [3]; “inactive; negative” under setting [1]; “inactive; negative” (Test System: AMES SALMONELLA TYPHIMURIUM, Strain/Indicator: TA104, Metabolic Activation: NONE, Method: STANDARD PLATE); “inactive; negative” (Test System: CHINESE HAMSTER OVARY, Strain/Indicator: CHO-K1-BH4 (HGPRT), Metabolic Activation: NONE).

For the compound `CCCCOS(=O)(=O)OCCCC`, the mutagenic call (End Point: In vitro micronucleus, Test System: Chinese Hamster Ovary (CHO-WBL) cells, Metabolic Activation: None) was “active; positive (p<0.01)”.

`CC(C)=C[C@H]1[C@@H](C(=O)OCc2coc(Cc3ccccc3)c2)C1(C)C`: the mutagenic call is “inactive; negative” under setting [3]; “inactive; negative” (Test System: AMES SALMONELLA TYPHIMURIUM, Strain/Indicator: TA98, Metabolic Activation: RAT, LIVER, S-9, AROCLOR 1254, Method: STANDARD PLATE); “inactive; negative” under setting [2]; “inactive; negative” (Test System: CHINESE HAMSTER V-79, Strain/Indicator: V-79/6-THIOGUANINE, Metabolic Activation: NONE, Method: STANDARD PLATE); “inactive; negative” (Test System: CHINESE HAMSTER V-79, Strain/Indicator: V-79/6-THIOGUANINE, Metabolic Activation: RAT HEPATOCYTES, Method: STANDARD PLATE); “inactive; negative” (Test System: CHINESE HAMSTER V-79, Strain/Indicator: V-79/OUABAIN, Metabolic Activation: NONE, Method: STANDARD PLATE). The mutagenic call (Test System: CHINESE HAMSTER V-79, Strain/Indicator: V-79/OUABAIN, Metabolic Activation: RAT HEPATOCYTES, Method: STANDARD PLATE) is “inactive; negative”.

For the compound `COc1ccc2c(OC)c3ccoc3nc2c1OC`, the mutagenic call (Test System: AMES SALMONELLA TYPHIMURIUM, Strain/Indicator: TA98, Metabolic Activation: RAT, LIVER, MICROSOMES, PHENOBARBITAL, Method: STANDARD PLATE) is “active; positive”; the mutagenic call (Test System: AMES SALMONELLA TYPHIMURIUM, Strain/Indicator: TA98, Metabolic Activation: RAT, LIVER, S-9, PHENOBARBITAL, Method: STANDARD PLATE) is “active; positive”; the mutagenic call (Test System: AMES SALMONELLA TYPHIMURIUM, Strain/Indicator: TA100, Metabolic Activation: RAT, LIVER, MICROSOMES, PHENOBARBITAL, Method: STANDARD PLATE) is “active; positive”; the mutagenic call (Test System: AMES SALMONELLA TYPHIMURIUM, Strain/Indicator: TA100, Metabolic Activation: RAT, LIVER, S-9, PHENOBARBITAL, Method: STANDARD PLATE) is “active; positive”; the mutagenic call (Test System: AMES SALMONELLA TYPHIMURIUM, Strain/Indicator: TA1535, Metabolic Activation: RAT, LIVER, MICROSOMES, PHENOBARBITAL, Method: STANDARD PLATE) was “inactive; negative”; the mutagenic call (Test System: AMES SALMONELLA TYPHIMURIUM, Strain/Indicator: TA1538, Metabolic Activation: RAT, LIVER, MICROSOMES, PHENOBARBITAL, Method: STANDARD PLATE) is “inactive; negative”.
